Laboratory results from patent publication US20160058775A1, “COMPOSITION AND FORMULATION OF ANTIMICROBIAL AGENTS, PROCESSES THEREOF AND METHODS FOR TREATING MICROBIAL INFECTIONS” (VYOME BIOSCIENCES PVT. LTD., priority 2013, published 2016).
Read-outs that look alike come from different tables or passages of the source.

System: M. furfur
Description: The time-kill assays were used to evaluate efficacy of antimicrobial agents, either singly or in combination, and the results can help in establishing the dose and/or time of application of the active. The time-kill assays were used to study both concentration-dependent and time-dependent antimicrobial action.
M. furfur cells were suspended in Sabouraud Dextrose Broth (SDB) at inoculum concentration of 7×10^7 cells/ml. Cells were taken from a freshly growing (3-7 days old) plate and cell suspension was vortexed to remove the cell clumps as much as possible. Sterile media were supplemented with chloramphenicol (0.25 mg/ml), cycloheximide (0.04 mg/ml) and olive oil (2%). The media were then supplemented with appropriate concentrations (two-fold serial dilutions using SDB) of unmodified zinc pyrithione API (10 μg/ml and 50 μg/ml) with different concentrations of Capmul 908-P (0%, 1%, 3%, 5% & 9%). The cultures were incubated on a tube rotator at 34° C. in CO2 incubator.
To measure the colony forming units (CFU), at different time points, aliquots (50 μl) of Malassezia cultures were serially diluted with SDBT medium (SDB containing 0.1% Triton X-100) and plated on SDA plates. The plates are incubated at 34° C. in CO2 incubator for 3 days. The viable colonies were counted and converted to CFU/ml.

Question: Which results are given for zinc pyrithione [ZPT]?
Answer: Log CFU Count of M. furfur (ZPT 10 μg/ml, Capmul 908-P 30 μg/ml, 6 hrs): 6.50; Log CFU Count of M. furfur (ZPT 10 μg/ml, Capmul 908-P 30 μg/ml, 24 hrs): 5.94; Log CFU Count of M. furfur (ZPT 10 μg/ml, Capmul 908-P 30 μg/ml, 48 hrs): 5.06; Log CFU Count of M. furfur (ZPT 10 μg/ml, Capmul 908-P 50 μg/ml, 6 hrs): 6.37; Log CFU Count of M. furfur (ZPT 10 μg/ml, Capmul 908-P 50 μg/ml, 24 hrs): 5.57; Log CFU Count of M. furfur (ZPT 10 μg/ml, Capmul 908-P 50 μg/ml, 48 hrs): 4.80; Log CFU Count of M. furfur (ZPT 10 μg/ml, Capmul 908-P 90 μg/ml, 6 hrs): 6.33; Log CFU Count of M. furfur (ZPT 10 μg/ml, Capmul 908-P 90 μg/ml, 24 hrs): 5.55; Log CFU Count of M. furfur (ZPT 10 μg/ml, Capmul 908-P 90 μg/ml, 48 hrs): 4.77; Log CFU Count of M. furfur (ZPT 10 μg/ml, Capmul 908-P nil, 6 hrs): 6.56; Log CFU Count of M. furfur (ZPT 10 μg/ml, Capmul 908-P nil, 24 hrs): 6.13; Log CFU Count of M. furfur (ZPT 10 μg/ml, Capmul 908-P nil, 48 hrs): 5.27; Log CFU Count of M. furfur (ZPT 50 μg/ml, Capmul 908-P 30 μg/ml, 6 h): 6.06; Log CFU Count of M. furfur (ZPT 50 μg/ml, Capmul 908-P 30 μg/ml, 24 h): 4.69; Log CFU Count of M. furfur (ZPT 50 μg/ml, Capmul 908-P 30 μg/ml, 48 h): 3.25; Log CFU Count of M. furfur (ZPT 50 μg/ml, Capmul 908-P 50 μg/ml, 6 h): 5.94; Log CFU Count of M. furfur (ZPT 50 μg/ml, Capmul 908-P 50 μg/ml, 24 h): 4.62; Log CFU Count of M. furfur (ZPT 50 μg/ml, Capmul 908-P 50 μg/ml, 48 h): 3.04; Log CFU Count of M. furfur (ZPT 50 μg/ml, Capmul 908-P 90 μg/ml, 6 h): 5.52; Log CFU Count of M. furfur (ZPT 50 μg/ml, Capmul 908-P 90 μg/ml, 24 h): 3.63; Log CFU Count of M. furfur (ZPT 50 μg/ml, Capmul 908-P 90 μg/ml, 48 h): 2.08; Log CFU Count of M. furfur (ZPT 50 μg/ml, Capmul 908-P nil, 6 h): 6.43; Log CFU Count of M. furfur (ZPT 50 μg/ml, Capmul 908-P nil, 24 h): 5.39; Log CFU Count of M. furfur (ZPT 50 μg/ml, Capmul 908-P nil, 48 h): 3.92; Anti-microbial activity towards M. furfur with increasing concentration of propylene glycol monocaprylate (Capmul 908-P) (time-kill, Tables 12 and 13): gets potentiated
